Data set [1] can be described thus: Thermodynamic solubility of the compound at pH 7.4. Particulars: buffer, read-out: Therm_solubility. In kind it is physicochemical.
Data set [2] relates to Zone of skin. Nature of the data set: Skin permeability in human cadaver skin in Franz diffusion cell system. In kind it is ADME.
Data set [3] can be described thus: Skin permeability by silicone and isopropyl myristate (70:30) containing artificial membranes based skin PAMPA method. In kind it is ADME. A general note: PAMPA measures passive passage across an artificial lipid membrane.
Data set [4] can be described thus: Skin drug retention by silicone and isopropyl myristate (70:30) containing artificial membranes based skin PAMPA method.
Data set [5] has as its target T1, Androgen receptor (Homo sapiens) (UniProt P10275).
T1 sequence (whole entry): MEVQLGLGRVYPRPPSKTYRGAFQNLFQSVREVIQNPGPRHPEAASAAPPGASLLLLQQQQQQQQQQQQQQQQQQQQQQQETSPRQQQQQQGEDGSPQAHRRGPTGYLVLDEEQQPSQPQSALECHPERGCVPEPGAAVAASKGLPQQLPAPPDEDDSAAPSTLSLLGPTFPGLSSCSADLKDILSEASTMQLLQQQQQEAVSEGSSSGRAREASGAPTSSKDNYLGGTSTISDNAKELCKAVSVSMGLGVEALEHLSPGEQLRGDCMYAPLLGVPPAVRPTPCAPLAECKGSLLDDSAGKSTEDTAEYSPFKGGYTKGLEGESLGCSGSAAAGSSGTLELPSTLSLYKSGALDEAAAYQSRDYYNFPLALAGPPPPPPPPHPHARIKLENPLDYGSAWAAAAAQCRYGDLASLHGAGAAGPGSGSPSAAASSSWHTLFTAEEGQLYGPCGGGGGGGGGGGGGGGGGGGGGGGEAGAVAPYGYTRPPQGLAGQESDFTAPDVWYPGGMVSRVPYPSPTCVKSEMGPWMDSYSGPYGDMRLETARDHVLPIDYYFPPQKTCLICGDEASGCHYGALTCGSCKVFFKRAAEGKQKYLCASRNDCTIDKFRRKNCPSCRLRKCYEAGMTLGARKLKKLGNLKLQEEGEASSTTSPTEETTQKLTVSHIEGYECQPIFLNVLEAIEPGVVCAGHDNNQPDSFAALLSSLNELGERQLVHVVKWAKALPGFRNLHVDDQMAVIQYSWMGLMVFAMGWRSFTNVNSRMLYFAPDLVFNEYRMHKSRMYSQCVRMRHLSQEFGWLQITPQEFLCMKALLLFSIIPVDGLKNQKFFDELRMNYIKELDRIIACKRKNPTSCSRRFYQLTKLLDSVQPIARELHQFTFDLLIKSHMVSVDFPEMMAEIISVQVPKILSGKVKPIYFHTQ
Briefly: Agonist activity at human androgen receptor expressed in mouse C2C12 cells by androgen-specific response element-driven luciferase reporter gene assay relative to DHT. In kind it is cell-based.

Data set [6] in a line: Lipophilicity, logP of the compound. In kind it is physicochemical. Conditions: octanol/water.
For data set [7], the target named is T2, Androgen receptor (Homo sapiens, UniProt P10275).
T2 sequence (P10275 whole entry): T1 sequence (whole entry)

The test system of data set [8] is Rattus norvegicus. Briefly: Anabolic activity in orchidectomized rat assessed as stimulation of bulbocavernosus/levator ani muscle weight treated subcutaneously once daily for 14 days by Hershberger assay. In kind it is functional. Particulars: sc, 336 h.
Data set [9] deals with Rattus norvegicus. Briefly: Androgenic activity in orchidectomized rat assessed as stimulation of prostate weight treated subcutaneously once daily for 14 days by Hershberger assay. In kind it is organism-based. Conditions: Prostate gland, sc, 336 h.
In data set [10] the target is T2, Androgen receptor. Conditions: c2c12.

≈ marks a conversion by molar mass, not a printed value. Calls of active or inactive are those of the source. The rule behind the calls is not given here.

As to `C[C@]12CC[C@H]3[C@@H](CCC4=CC(=O)CC[C@@]43C)[C@@H]1CC[C@@H]2O` [TESTOSTERONE], in data set [1], the solubility thermodynamic came out at 40 µg/mL (≈ 139 µM). Moreover, the Jss in data set [2] is reported as 0.19 ug/cm2.hr. Moreover, the permeability entry in data set [3] is “permeable”. The Drug uptake result in data set [4] is “inactive”.
In the case of `CO[C@@H]1C(c2ccc(C#N)c(Cl)c2C)=NN2CC[C@@H](O)[C@@H]12`, the Emax (as a rule, the greatest response seen or fitted, relative to the assay's reference) in [5] came to 86.7%. In addition, the solubility thermodynamic in [1] is 250 µg/mL (≈ 818 µM). Further, the logP (in general, a log measure of how a compound divides between an organic and an aqueous phase) in data set [6] amounted to 1.9. The compound also gave a Jss in data set [2] of 0.2 ug/cm2.hr. Also, in [7], the response was half-maximal at 0.4 nM (EC50).
`CO[C@@H]1C(c2ccc(C#N)c(Cl)c2C)=NN2CC(F)(F)C[C@@H]12` had an Emax in data set [5] of 100%. Further, in [1], the solubility thermodynamic was determined as 10 µg/mL (≈ 30.7 µM). Moreover, the logP in data set [6] was 3.2. Further, the Jss in [2] was 0.06 ug/cm2.hr. Further, in data set [3], the permeability entry is on record as “permeable”. For the same compound, the Drug uptake entry in data set [4] is “Active”. Further, in data set [7], the EC50 (commonly the concentration needed to bring the measured effect to its halfway point) is 0.3 nM.
In turn, `CO[C@@H]1C(c2ccc(C#N)c(Cl)c2C)=NN2CC[C@@H](F)[C@@H]12` showed an Emax in data set [5] of 98%. Also, the solubility thermodynamic in data set [1] came to 10 µg/mL (≈ 32.5 µM). This compound had a logP in [6] of 2.7. The Jss in data set [2] was found to be 1.2 ug/cm2.hr. The permeability entry in data set [3] is given as “permeable”. The Drug uptake result in [4] was “inactive”. For the same compound, the EC50 in [7] worked out at 0.16 nM.
For `CCC(=O)O[C@H]1CC[C@H]2[C@@H]3CCC4=CC(=O)CC[C@]4(C)[C@H]3CC[C@]12C` [TESTOSTERONE PROPIONATE], the ED50 (usually the dose at which the effect has come halfway, by size or by number of responders) in data set [8] worked out at 0.29 mg/kg; in data set [9], 0.31 mg/kg.
In data set [5], `CO[C@@H]1C(c2ccc(C#N)c(Cl)c2C)=NN2CC[C@H](F)[C@@H]12` registered an Emax of 93.5%. The EC50 in data set [7] is 1.5 nM.
As to `COCCO[C@@H]1C(c2ccc(C#N)c(Cl)c2C)=NN2CC[C@H](O)[C@@H]12`, the Emax in [5] came to 82%. In addition, the solubility thermodynamic in data set [1] was 2300 µg/mL (≈ 6570 µM). The compound also returned a logP in data set [6] of 2. This compound also displayed a Jss in data set [2] of 1.1 ug/cm2.hr.
Consider `CCO[C@@H]1C(c2ccc(C#N)c(Cl)c2C)=NN2CC[C@H](O)[C@@H]12`, for which the maximal response (Emax) in [5] was 98.3%. The solubility thermodynamic in data set [1] was determined as 250 µg/mL (≈ 782 µM). Further, the lipophilicity (logP) in data set [6] came out at 2.4. The compound also came in with a Jss in data set [2] of 0.9 ug/cm2.hr. In addition, in data set [3], the permeability entry is “permeable”. The Drug uptake entry in [4] was “inactive”. The same compound displayed an EC50 in [7] of 1 nM.
Take `CO[C@@H]1C(c2ccc(C#N)c(Cl)c2C)=NN2CC(=O)C[C@@H]12`: the Emax in [5] was 93%. Also, a half-maximal response in data set [7] (EC50) required 26 nM.
Turning to `Cc1c(C2=NN3CC[C@H](O)[C@H]3[C@@H]2OC(C)C)ccc(C#N)c1Cl`, the Emax in data set [5] turned out to be 102%. The compound also registered an EC50 in [7] of 4.5 nM.
In the case of `CO[C@@H]1C(c2ccc(C#N)c(Cl)c2C)=NN2C[C@@H](O)C[C@@H]12`, the Emax result in [5] was “inactive”. For the same compound, the EC50 result in [10] is recorded as “Not Active”.
On to `CO[C@@H]1C(c2ccc(C#N)c(Cl)c2C)=NN2C[C@@H](F)C[C@@H]12`, for which the Emax in data set [5] was determined as 86%. This compound showed an EC50 in data set [7] of 1.4 nM.
The matching figures for `Cc1c(C2=NN3CC[C@H](O)[C@H]3[C@@H]2O)ccc(C#N)c1Cl`: 55% and 978 nM.
For `CO[C@H]1CCN2N=C(c3ccc(C#N)c(Cl)c3C)[C@@H](OC)[C@H]12`, in data set [5], the Emax worked out at 82%.
`CO[C@@H]1C(c2ccc(C#N)c(Cl)c2C)=NN2C[C@H](O)C[C@@H]12` yielded an Emax in data set [5] of 75%. Further, the EC50 in [7] was found to be 9.7 nM.

The record behind these values is ChEMBL document CHEMBL3351728, “3-alkoxy-pyrrolo[1,2-b]pyrazolines as selective androgen receptor modulators with ideal physicochemical properties for transdermal administration” (J Med Chem, 2014).
